For 26 molecules, Ki results are on record in US8343959B2, “N-phenyl-(piperazinyl or homopiperazinyl)-benzenesulfonamide or benzenesulfonyl-phenyl-(piperazine or homopiperazine) compounds suitable for treating disorders that respond to modulation of the serotonin 5-HT6 receptor” (Abbott GmbH & Co. KG, priority 2009, dated 2013).

The target of the assay is T1, h-5-HT6 receptor (Homo sapiens, UniProt P50406).
T1 construct: expressed in transfected cells
Description: 5-HT6 receptor binding assay (displacement of [3H]-LSD). To be noted: membranes of HEK293 cells expressing h-5-HT6 receptor, 1 nM [3H]-LSD; read-out: Ki (5HT6). The protocol: Displacement of Radioligands Binding to The Following Cloned Human Receptors
Cells from stable clonal cell lines expressing the corresponding receptor (5-HT6, α1-adrenergic, dopamine D2 or histamine H1 receptors) were washed with PBS (w/o Ca^++, Mg^++) and harvested in PBS with 0.02% EDTA. The cells were collected by centrifugation at 500 g for 10 min. at 4° C., washed with PBS and centrifuged (500 g, 10 min. 4° C.). The pellets were stored at −80° C. until use. For membrane preparation, the thawed cell pellet was resuspended in ice-cold sucrose buffer (0.25 M sucrose, 10 mM Hepes (pH 7.4), 1 mM Phenylmethylsulfonyl fluoride (PMSF) in DMSO, 5 μg/ml Pepstatin-A, 3 mM EDTA, 0.025% Bacitracin) and homogenized with a Branson Sonifier W-250 (Settings: Timer 4; Output Control 3; Duty Cycle constant; 2 to 3 cycles). Cell disruption was checked with the aid of a microscope. Remaining unbroken cells were pelleted at 1.000 g for 10 min. at 4° C. The sucrose buffer supernatant was then centrifuged at 60.000 g for 1 h at 4° C. (Beckman Ultrazentrifuge XL 80). The pellet was resuspended in 30 ml ice-cold Tris buffer (20 mM TRIS (pH 7.4), 5 μg/ml Pepstatin A, 0.1 mM PMSF, 3 mM EDTA) by pipetting through a 10 ml serological pipet and centrifuged for 1 h at 4° C. at 60.000 g. A final resuspension was performed in a small volume of ice-cold Tris buffer (see above) by pressing through a serological pipet followed by ultrasonic treatment with a Branson Sonifier W-250 (Settings: Timer 1; Output Control 3; Duty Cycle constant; 1 cycle). Protein concentration was determined (BCA-Kit; Pierce) and aliquots stored at −80° C. or in liquid nitrogen for long-term storage.
All receptor binding experiments were carried out in the corresponding assay buffer in a total volume of 200 μl in the presence of various concentrations of test compound (10^−5 M to 10^−9 M, tenfold serial dilution, duplicate determinations). The assays were terminated by filtration on polyethylenimine (PEI 0.1% or 0.3%) presoaked Packard Unifilter Plates (GF/C or GF/B) with a Tomtec Machin U 96 well-plate harvester. After the plates had been dried for 2 h at 55° C. in a drying chamber scintillation cocktail (BetaPlate Scint; PerkinElmer) was added. Radioactivity was measured in a Microbeta Trilux two hours after the addition of the scintillation mixture. Data derived from liquid scintillation counting were analysed by iterative non-linear regression analysis with the use of the Statistical Analysis System (SAS): a program similar to “LIGAND” as described by Munson and Rodbard (Analytical Biochemistry 107, 220-239 (1980).
HEK293 cells stably expressing the h-5-HT6 receptor (NCBI Reference Sequence XM 001435) were cultured in RPMI1640 medium supplemented with 25 mM HEPES, 10% fetal calf serum and 1-2 mM glutamine. The membrane preparation was performed as described in section 1. […] Non-specific binding was defined with 1 μM methiothepin. The binding reaction was carried out for 3.5 h at room temperature. During the incubation, the plates were shaken on a plate shaker at 100 rpm and terminated by filtration on Packard Unifilter GF/C (0.1% PEI) plates, followed by 2 wash cycles with ice-cold 50 mM Tris-HCl, 5 mM CaCl2.
Data derived from liquid scintillation counting were analyzed by iterative non-linear regression analysis with the use of the Statistical Analysis System (SAS): a program similar to “LIGAND” as described by Munson and Rodbard (Anal. Biochem. 1980, 107, 220-239). Fitting was performed according to formulae described by Feldman (Anal. Biochem. 1972, 48, 317-338). IC50, nH and Ki values were expressed as geometrical mean.
On the technique in general: Loss of bound radioactivity is the signal in a displacement assay; it reports binding, not function.

Where a name gives a salt, the structure may show the parent alone.

T1 sequence (P50406 whole entry): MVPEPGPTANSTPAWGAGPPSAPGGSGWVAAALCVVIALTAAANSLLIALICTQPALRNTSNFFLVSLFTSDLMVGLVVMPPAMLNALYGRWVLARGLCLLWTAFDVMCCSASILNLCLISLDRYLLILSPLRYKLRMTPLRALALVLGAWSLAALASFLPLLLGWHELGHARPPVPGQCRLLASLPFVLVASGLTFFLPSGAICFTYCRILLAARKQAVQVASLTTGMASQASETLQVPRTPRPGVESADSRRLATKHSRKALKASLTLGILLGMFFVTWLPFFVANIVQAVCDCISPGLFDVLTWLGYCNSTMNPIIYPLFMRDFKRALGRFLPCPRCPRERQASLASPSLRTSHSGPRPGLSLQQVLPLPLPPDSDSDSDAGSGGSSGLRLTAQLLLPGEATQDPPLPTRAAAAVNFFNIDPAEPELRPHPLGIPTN

The Ki is a dissociation constant, usually derived from enzyme kinetics or from competition with a known ligand. In the case of `CCc1ccc(S(=O)(=O)Nc2cc(C)ccc2OC(F)F)cc1N1CCNCC1` [Example 65, N-(2-Difluoromethoxy-5-methyl-phenyl)-4-ethyl-3-piperazin-1-yl-benzenesulfonamide hydrochloride], the inhibition constant (Ki) is under 10 nM. The value for `COc1ccc(S(=O)(=O)Nc2ccc3c(c2)OC(F)(F)O3)cc1N1CCN(C)CC1` [Example 66, N-(2,2-Difluoro-benzo[1,3]dioxol-5-yl)-4-methoxy-3-(4-methyl-piperazin-1-yl)-benzenesulfonamide hydrochloride] was under 10 nM; that for `COc1ccc(S(=O)(=O)Nc2cc(C)ccc2OC(F)F)cc1N1CCN(C)CC1` [Example 67, N-(2-Difluoromethoxy-5-methyl-phenyl)-4-methoxy-3-(4-methyl-piperazin-1-yl)-benzenesulfonamide hydrochloride] was under 10 nM; that for `O=S(=O)(Nc1cccc(OC(F)F)c1)c1cccc(N2CCNCC2)c1` [Example 68, N-(3-Difluoromethoxy-phenyl)-3-piperazin-1-yl-benzenesulfonamide hydrochloride] was under 10 nM. In the case of `COc1ccc(S(=O)(=O)Nc2ccc(F)cc2OC(F)F)cc1N1CCN(C)CC1` [Example 69, N-(2-Difluoromethoxy-4-fluoro-phenyl)-4-methoxy-3-(4-methyl-piperazin-1-yl)-benzenesulfonamide hydrochloride] it was under 10 nM; in that of `COc1ccc(S(=O)(=O)Nc2ccc(C)cc2OC(F)F)cc1N1CCN(C)CC1` [Example 70, N-(2-Difluoromethoxy-4-methyl-phenyl)-4-methoxy-3-(4-methyl-piperazin-1-yl)-benzenesulfonamide hydrochloride], under 10 nM.

Turning to `Cc1ccc(S(=O)(=O)Nc2cc(Cl)ccc2OC(F)F)cc1N1CCNCC1` [Example 71, N-(5-Chloro-2-difluoromethoxy-phenyl)-4-methyl-3-piperazin-1-yl-benzenesulfonamide hydrochloride], the inhibition constant Ki was under 10 nM. In the case of `COc1ccc(S(=O)(=O)Nc2cc(C)ccc2OC(F)F)cc1N1CCNCC1` [Example 72, N-(2-Difluoromethoxy-5-methyl-phenyl)-4-methoxy-3-piperazin-1-yl-benzenesulfonamide hydrochloride] it was under 10 nM. In the case of `COc1ccc(S(=O)(=O)Nc2ccc(C)cc2OC(F)F)cc1N1CCNCC1` [Example 73, N-(2-Difluoromethoxy-4-methyl-phenyl)-4-methoxy-3-piperazin-1-yl-benzenesulfonamide hydrochloride] it was under 10 nM. Consider `Cc1ccc(S(=O)(=O)Nc2ccc(F)cc2OC(F)F)cc1N1CCNCC1` [Example 74, N-(2-Difluoromethoxy-4-fluoro-phenyl)-4-methyl-3-piperazin-1-yl-benzenesulfonamide hydrochloride], for which the inhibition constant Ki is under 50 nM. On to `Cc1ccc(NS(=O)(=O)c2ccc(C)c(N3CCN(C)CC3)c2)cc1OC(F)F` [Example 75, N-(3-Difluoromethoxy-4-methyl-phenyl)-4-methyl-3-(4-methyl-piperazin-1-yl)-benzenesulfonamide hydrochloride], for which the Ki was under 50 nM. The value for `COc1cc(NS(=O)(=O)c2ccc(C)c(N3CCNCC3)c2)ccc1OC(F)F` [Example 76, N-(4-Difluoromethoxy-3-methoxy-phenyl)-4-methyl-3-piperazin-1-yl-benzenesulfonamide] was under 50 nM; that for `COc1ccc(OC(F)F)cc1NS(=O)(=O)c1ccc(C)c(N2CCN(C)CC2)c1` [Example 77, N-(5-Difluoromethoxy-2-methoxy-phenyl)-4-methyl-3-(4-methyl-piperazin-1-yl)-benzenesulfonamide trifluoroacetate] was under 50 nM. In the case of `COc1ccc(OC(F)F)c(NS(=O)(=O)c2ccc(C)c(N3CCN(C)CC3)c2)c1` [Example 78, N-(2-Difluoromethoxy-5-methoxy-phenyl)-4-methyl-3-(4-methyl-piperazin-1-yl)-benzenesulfonamide trifluoroacetate] it was under 50 nM; in that of `Cc1ccc(S(=O)(=O)Nc2ccc(F)cc2OC(F)F)cc1N1CCN(C)CC1` [Example 79, N-(2-Difluoromethoxy-4-fluoro-phenyl)-4-methyl-3-(4-methyl-piperazin-1-yl)-benzenesulfonamide trifluoroacetate], under 50 nM. Regarding `COc1ccc(OC(F)F)cc1NS(=O)(=O)c1ccc(C)c(N2CCNCC2)c1` [Example 80, N-(5-Difluoromethoxy-2-methoxy-phenyl)-4-methyl-3-piperazin-1-yl-benzenesulfonamide trifluoroacetate], the Ki is under 50 nM. As for `COc1ccc(OC(F)F)c(NS(=O)(=O)c2ccc(C)c(N3CCNCC3)c2)c1` [Example 81, N-(2-Difluoromethoxy-5-methoxy-phenyl)-4-methyl-3-piperazin-1-yl-benzenesulfonamide hydrochloride], the inhibitory constant (Ki) was under 50 nM. The value for `COc1ccc(S(=O)(=O)Nc2ccc(F)cc2OC(F)F)cc1N1CCNCC1` [Example 82, N-(2-Difluoromethoxy-4-fluoro-phenyl)-4-methoxy-3-piperazin-1-yl-benzenesulfonamide hydrochloride] was under 10 nM; that for `COc1ccc(S(=O)(=O)Nc2ccc3c(c2)OC(F)(F)O3)cc1N1CCNCC1` [Example 83, N-(2,2-Difluoro-benzo[1,3]dioxol-5-yl)-4-methoxy-3-piperazin-1-yl-benzenesulfonamide hydrochloride] was under 10 nM; that for `Cc1ccc(S(=O)(=O)Nc2ccc3c(c2)OC(F)(F)O3)cc1N1CCNCC1` [Example 84, N-(2,2-Difluoro-benzo[1,3]dioxol-5-yl)-4-methyl-3-piperazin-1-yl-benzenesulfonamide hydrochloride] was under 50 nM. In the case of `COc1ccc(NS(=O)(=O)c2ccc(C)c(N3CCNCC3)c2)cc1OC(F)F` [Example 85, N-(3-Difluoromethoxy-4-methoxy-phenyl)-4-methyl-3-piperazin-1-yl-benzenesulfonamide hydrochloride] it was under 500 nM. In the case of `COc1ccc(NS(=O)(=O)c2ccc(C)c(N3CCN(C)CC3)c2)cc1OC(F)F` [Example 86, N-(3-Difluoromethoxy-4-methyoxy-phenyl)-4-methyl-3-(4-methyl-piperazin-1-yl)-benzenesulfonamide hydrochloride] it was under 500 nM; in that of `Cc1cc(NS(=O)(=O)c2ccc(C)c(N3CCN(C)CC3)c2)ccc1OC(F)F` [Example 87, N-(4-Difluoromethoxy-3-methyl-phenyl)-4-methyl-3-(4-methyl-piperazin-1-yl)-benzenesulfonamide hydrochloride], under 50 nM.

`Cc1ccc(S(=O)(=O)Nc2ccc(OC(F)F)cc2)cc1N1CCN(C)CC1` [Example 88, N-(4-Difluoromethoxy-phenyl)-4-methyl-3-(4-methyl-piperazin-1-yl)-benzenesulfonamide hydrochloride]: the Ki is under 500 nM.

As for `COc1ccc(S(=O)(=O)Nc2ccc(C)c(OC(F)F)c2)cc1N1CCN(C)CC1` [Example 89, N-(3-Difluoromethoxy-4-methyl-phenyl)-4-methoxy-3-(4-methyl-piperazin-1-yl)-benzenesulfonamide hydrochloride], the inhibition constant Ki was under 10 nM. In the case of `COc1cc(NS(=O)(=O)c2ccc(OC)c(N3CCN(C)CC3)c2)ccc1OC(F)F` [Example 90, N-(4-Difluoromethoxy-3-methoxy-phenyl)-4-methoxy-3-(4-methyl-piperazin-1-yl)-benzenesulfonamide] it was under 50 nM.
